Experiments:
Test in all cases: Test B preemergence/postemergence greenhouse plant response rating 0 to 10
corn = format: in vivo, Zea mays; conditions: for Plant response rating, Corn: 0 to 10 scale
Procedure, shortened: (§1)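 Postemergence treatment of plants two to eighteen cm tall ran alongside preemergence treatment of planted seed, each using compound in a non-phytotoxic solvent.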

chickweed = format: in vivo, Stellaria media; conditions: for Plant response rating, Chickweed: 0 to 10 scale
Procedure, shortened: as §1

crabgrass = format: in vivo, Digitaria spp.; conditions: for Plant response rating, Crabgrass: 0 to 10 scale
Procedure, shortened: as §1

lambsquarters = format: in vivo, Chenopodium album; conditions: for Plant response rating, Lambsquarter: 0 to 10 scale
Procedure, shortened: as §1

wheat = format: in vivo, Triticum aestivum; conditions: for Plant response rating, Wheat: 0 to 10 scale
Procedure, shortened: as §1

sorghum = format: in vivo, Sorghum bicolor; conditions: for Plant response rating, Sorghum: 0 to 10 scale
Procedure, shortened: as §1

morningglory = format: in vivo, Ipomoea hederacea; conditions: for Plant response rating, Morningglory: 0 to 10 scale
Procedure, shortened: as §1

cheatgrass = format: in vivo, Bromus secalinus; conditions: for Plant response rating, Cheatgrass: 0 to 10 scale
Procedure, shortened: as §1

wild oat = format: in vivo, Avena fatua; conditions: for Plant response rating, Wild oat: 0 to 10 scale
Procedure, shortened: as §1

sugar beet = format: in vivo, Beta vulgaris; conditions: for Plant response rating, Sugar beet: 0 to 10 scale
Procedure, shortened: as §1

cotton = format: in vivo, Gossypium hirsutum; conditions: for Plant response rating, Cotton: 0 to 10 scale
Procedure, shortened: as §1

barley = format: in vivo, Hordeum vulgare; conditions: for Plant response rating, Barley: 0 to 10 scale
Procedure, shortened: as §1

barnyardgrass = format: in vivo, Echinochloa crus-galli; conditions: for Plant response rating, Barnyardgrass: 0 to 10 scale
Procedure, shortened: as §1

giant foxtail = format: in vivo, Setaria faberii; conditions: for Plant response rating, Giant foxtail: 0 to 10 scale
Procedure, shortened: as §1

bedstraw = format: in vivo, Galium aparine; conditions: for Plant response rating, Bedstraw: 0 to 10 scale
Procedure, shortened: as §1

cocklebur = format: in vivo, Xanthium pensylvanicum; conditions: for Plant response rating, Cocklebur: 0 to 10 scale
Procedure, shortened: as §1

wild buckwheat = format: in vivo, Polygonum convolvulus; conditions: for Plant response rating, Wild buckwheat: 0 to 10 scale
Procedure, shortened: as §1

blackgrass = format: in vivo, Alopecurus myosuroides; conditions: for Plant response rating, Blackgrass: 0 to 10 scale
Procedure, shortened: as §1

soybean = format: in vivo, Glycine max; conditions: for Plant response rating, Soybean: 0 to 10 scale
Procedure, shortened: as §1

purple nutsedge = format: in vivo, Cyperus rotundus; conditions: for Plant response rating, Nutsedge: 0 to 10 scale
Procedure, shortened: as §1

velvetleaf = format: in vivo, Abutilon theophrasti; conditions: for Plant response rating, Velvetleaf: 0 to 10 scale
Procedure, shortened: as §1

rice = format: in vivo, Oryza sativa; conditions: for Plant response rating, Rice: 0 to 10 scale
Procedure, shortened: as §1

rape = format: in vivo, Brassica napus; conditions: for Plant response rating, Rape: 0 to 10 scale
Procedure, shortened: as §1

Structure (SMILES): C#CC(C)Oc1cc(-c2nn3c(c2Cl)CCCC3)c(Cl)cc1Cl (centres unmarked) [Compound 74]
- Plant response rating, Corn (corn; POSTEMERGENCE, Rate 50 g/ha): 2
- Plant response rating, Corn (corn; PREEMERGENCE, Rate 50 g/ha): 0
- Plant response rating (0 to 10 scale), Corn (corn; PREEMERGENCE, Rate 200 g/ha): 0
- Plant response rating, Corn (corn; Rate 200 g/ha, POSTEMERGENCE): 4
- Plant response rating, Chickweed (chickweed; POSTEMERGENCE, Rate 50 g/ha): 6
- Plant response rating, Chickweed (chickweed; PREEMERGENCE, Rate 50 g/ha): 0
- Plant response rating (0 to 10 scale), Chickweed (chickweed; PREEMERGENCE, Rate 200 g/ha): 5
- Plant response rating, Chickweed (chickweed; Rate 200 g/ha, POSTEMERGENCE): 7
- Plant response rating, Crabgrass (crabgrass; POSTEMERGENCE, Rate 50 g/ha): 3
- Plant response rating, Crabgrass (crabgrass; PREEMERGENCE, Rate 50 g/ha): 2
- Plant response rating (0 to 10 scale), Crabgrass (crabgrass; PREEMERGENCE, Rate 200 g/ha): 6
- Plant response rating, Crabgrass (crabgrass; Rate 200 g/ha, POSTEMERGENCE): 5
- Plant response rating, Lambsquarter (lambsquarters; POSTEMERGENCE, Rate 50 g/ha): 9
- Plant response rating, Lambsquarter (lambsquarters; PREEMERGENCE, Rate 50 g/ha): 9
- Plant response rating (0 to 10 scale), Lambsquarter (lambsquarters; PREEMERGENCE, Rate 200 g/ha): 10
- Plant response rating, Lambsquarter (lambsquarters; Rate 200 g/ha, POSTEMERGENCE): 10
- Plant response rating, Wheat (wheat; POSTEMERGENCE, Rate 50 g/ha): 4
- Plant response rating, Wheat (wheat; PREEMERGENCE, Rate 50 g/ha): 0
- Plant response rating (0 to 10 scale), Wheat (wheat; PREEMERGENCE, Rate 200 g/ha): 0
- Plant response rating, Wheat (wheat; Rate 200 g/ha, POSTEMERGENCE): 5
- Plant response rating, Sorghum (sorghum; POSTEMERGENCE, Rate 50 g/ha): 5
- Plant response rating, Sorghum (sorghum; PREEMERGENCE, Rate 50 g/ha): 0
- Plant response rating (0 to 10 scale), Sorghum (sorghum; PREEMERGENCE, Rate 200 g/ha): 0
- Plant response rating, Sorghum (sorghum; Rate 200 g/ha, POSTEMERGENCE): 7
- Plant response rating, Morningglory (morningglory; POSTEMERGENCE, Rate 50 g/ha): 9
- Plant response rating, Morningglory (morningglory; PREEMERGENCE, Rate 50 g/ha): 0
- Plant response rating (0 to 10 scale), Morningglory (morningglory; PREEMERGENCE, Rate 200 g/ha): 0
- Plant response rating, Morningglory (morningglory; Rate 200 g/ha, POSTEMERGENCE): 9
- Plant response rating, Cheatgrass (cheatgrass; POSTEMERGENCE, Rate 50 g/ha): 6
- Plant response rating, Cheatgrass (cheatgrass; PREEMERGENCE, Rate 50 g/ha): 4
- Plant response rating (0 to 10 scale), Cheatgrass (cheatgrass; PREEMERGENCE, Rate 200 g/ha): 4
- Plant response rating, Cheatgrass (cheatgrass; Rate 200 g/ha, POSTEMERGENCE): 6
- Plant response rating, Wild oat (wild oat; POSTEMERGENCE, Rate 50 g/ha): 4
- Plant response rating, Wild oat (wild oat; PREEMERGENCE, Rate 50 g/ha): 0
- Plant response rating (0 to 10 scale), Wild oat (wild oat; PREEMERGENCE, Rate 200 g/ha): 3
- Plant response rating, Wild oat (wild oat; Rate 200 g/ha, POSTEMERGENCE): 4
- Plant response rating, Sugar beet (sugar beet; POSTEMERGENCE, Rate 50 g/ha): 10
- Plant response rating, Sugar beet (sugar beet; PREEMERGENCE, Rate 50 g/ha): 0
- Plant response rating (0 to 10 scale), Sugar beet (sugar beet; PREEMERGENCE, Rate 200 g/ha): 10
- Plant response rating, Sugar beet (sugar beet; Rate 200 g/ha, POSTEMERGENCE): 10
- Plant response rating, Cotton (cotton; POSTEMERGENCE, Rate 50 g/ha): 10
- Plant response rating, Cotton (cotton; PREEMERGENCE, Rate 50 g/ha): 0
- Plant response rating (0 to 10 scale), Cotton (cotton; PREEMERGENCE, Rate 200 g/ha): 0
- Plant response rating, Cotton (cotton; Rate 200 g/ha, POSTEMERGENCE): 10
- Plant response rating, Barley (barley; POSTEMERGENCE, Rate 50 g/ha): 2
- Plant response rating, Barley (barley; PREEMERGENCE, Rate 50 g/ha): 0
- Plant response rating (0 to 10 scale), Barley (barley; PREEMERGENCE, Rate 200 g/ha): 0
- Plant response rating, Barley (barley; Rate 200 g/ha, POSTEMERGENCE): 4
- Plant response rating, Barnyardgrass (barnyardgrass; POSTEMERGENCE, Rate 50 g/ha): 5
- Plant response rating, Barnyardgrass (barnyardgrass; PREEMERGENCE, Rate 50 g/ha): 0
- Plant response rating (0 to 10 scale), Barnyardgrass (barnyardgrass; PREEMERGENCE, Rate 200 g/ha): 1
- Plant response rating, Barnyardgrass (barnyardgrass; Rate 200 g/ha, POSTEMERGENCE): 7
- Plant response rating, Giant foxtail (giant foxtail; POSTEMERGENCE, Rate 50 g/ha): 5
- Plant response rating, Giant foxtail (giant foxtail; PREEMERGENCE, Rate 50 g/ha): 2
- Plant response rating (0 to 10 scale), Giant foxtail (giant foxtail; PREEMERGENCE, Rate 200 g/ha): 6
- Plant response rating, Giant foxtail (giant foxtail; Rate 200 g/ha, POSTEMERGENCE): 5
- Plant response rating, Bedstraw (bedstraw; POSTEMERGENCE, Rate 50 g/ha): 8
- Plant response rating, Bedstraw (bedstraw; PREEMERGENCE, Rate 50 g/ha): 0
- Plant response rating (0 to 10 scale), Bedstraw (bedstraw; PREEMERGENCE, Rate 200 g/ha): 9
- Plant response rating, Bedstraw (bedstraw; Rate 200 g/ha, POSTEMERGENCE): 9
- Plant response rating, Cocklebur (cocklebur; POSTEMERGENCE, Rate 50 g/ha): 9
- Plant response rating, Cocklebur (cocklebur; PREEMERGENCE, Rate 50 g/ha): 0
- Plant response rating (0 to 10 scale), Cocklebur (cocklebur; PREEMERGENCE, Rate 200 g/ha): 0
- Plant response rating, Cocklebur (cocklebur; Rate 200 g/ha, POSTEMERGENCE): 10
- Plant response rating, Wild buckwheat (wild buckwheat; POSTEMERGENCE, Rate 50 g/ha): 10
- Plant response rating, Wild buckwheat (wild buckwheat; PREEMERGENCE, Rate 50 g/ha): 5
- Plant response rating (0 to 10 scale), Wild buckwheat (wild buckwheat; PREEMERGENCE, Rate 200 g/ha): 9
- Plant response rating, Wild buckwheat (wild buckwheat; Rate 200 g/ha, POSTEMERGENCE): 10
- Plant response rating, Blackgrass (blackgrass; POSTEMERGENCE, Rate 50 g/ha): 6
- Plant response rating, Blackgrass (blackgrass; PREEMERGENCE, Rate 50 g/ha): 0
- Plant response rating (0 to 10 scale), Blackgrass (blackgrass; PREEMERGENCE, Rate 200 g/ha): 8
- Plant response rating, Blackgrass (blackgrass; Rate 200 g/ha, POSTEMERGENCE): 6
- Plant response rating, Soybean (soybean; POSTEMERGENCE, Rate 50 g/ha): 6
- Plant response rating, Soybean (soybean; PREEMERGENCE, Rate 50 g/ha): 0
- Plant response rating (0 to 10 scale), Soybean (soybean; PREEMERGENCE, Rate 200 g/ha): 0
- Plant response rating, Soybean (soybean; Rate 200 g/ha, POSTEMERGENCE): 6
- Plant response rating, Nutsedge (purple nutsedge; POSTEMERGENCE, Rate 50 g/ha): 2
- Plant response rating, Nutsedge (purple nutsedge; PREEMERGENCE, Rate 50 g/ha): 0
- Plant response rating (0 to 10 scale), Nutsedge (purple nutsedge; PREEMERGENCE, Rate 200 g/ha): 0
- Plant response rating, Nutsedge (purple nutsedge; Rate 200 g/ha, POSTEMERGENCE): 2
- Plant response rating, Velvetleaf (velvetleaf; POSTEMERGENCE, Rate 50 g/ha): 10
- Plant response rating, Velvetleaf (velvetleaf; PREEMERGENCE, Rate 50 g/ha): 5
- Plant response rating (0 to 10 scale), Velvetleaf (velvetleaf; PREEMERGENCE, Rate 200 g/ha): 9
- Plant response rating, Velvetleaf (velvetleaf; Rate 200 g/ha, POSTEMERGENCE): 10
- Plant response rating, Rice (rice; POSTEMERGENCE, Rate 50 g/ha): 3
- Plant response rating, Rice (rice; PREEMERGENCE, Rate 50 g/ha): 0
- Plant response rating (0 to 10 scale), Rice (rice; PREEMERGENCE, Rate 200 g/ha): 0
- Plant response rating, Rice (rice; Rate 200 g/ha, POSTEMERGENCE): 6
- Plant response rating, Rape (rape; POSTEMERGENCE, Rate 50 g/ha): 10
- Plant response rating, Rape (rape; PREEMERGENCE, Rate 50 g/ha): 0
- Plant response rating (0 to 10 scale), Rape (rape; PREEMERGENCE, Rate 200 g/ha): 7
- Plant response rating, Rape (rape; Rate 200 g/ha, POSTEMERGENCE): 10
